The target of this assay is Kynurenine/alpha-aminoadipate aminotransferase, mitochondrial (Homo sapiens, UniProt Q8N5Z0). Put plainly: Inhibition Spectra Assay. The following applies: 37 °C. The protocol: Formation of kynurenic acid (KYNA) is indirectly assessed by a decrease in light absorbance at 370 nm (OD370) as the L-kynurenine (KYN) substrate is converted by the human KAT II (hKAT II) enzyme into KYNA. An inhibitor would therefore inhibit the decrease in OD370.The protocol was performed by placing the following reagents into a Costar 384 well black plate (30 uL total assay volume/well): 10 uL of 3x concentrated compound; 10 uL of 3x concentrated substrate mix (BGG (Sigma G-5009); 3 mM L-Kynurenine in 150 mM Tris Acetate (Sigma K3750); 3 mM alpha-ketoglutaric acid in 150 mM Tris Acetate (Sigma K2010); and 210 uM pyridoxal 5-phosphate (PLP) in 150 mM Tris Acetate (Sigma 9255)); and 10 uL of 3x concentrated enzyme (15 nM enzyme in 150 mM Tris Acetate with 0.3% bovine serum).Plates were sealed and incubated at 37 C. for 15-20 h before reading OD370 on a SpectraMax Plus plate reader.
Chain of Kynurenine/alpha-aminoadipate aminotransferase, mitochondrial (Q8N5Z0 whole entry): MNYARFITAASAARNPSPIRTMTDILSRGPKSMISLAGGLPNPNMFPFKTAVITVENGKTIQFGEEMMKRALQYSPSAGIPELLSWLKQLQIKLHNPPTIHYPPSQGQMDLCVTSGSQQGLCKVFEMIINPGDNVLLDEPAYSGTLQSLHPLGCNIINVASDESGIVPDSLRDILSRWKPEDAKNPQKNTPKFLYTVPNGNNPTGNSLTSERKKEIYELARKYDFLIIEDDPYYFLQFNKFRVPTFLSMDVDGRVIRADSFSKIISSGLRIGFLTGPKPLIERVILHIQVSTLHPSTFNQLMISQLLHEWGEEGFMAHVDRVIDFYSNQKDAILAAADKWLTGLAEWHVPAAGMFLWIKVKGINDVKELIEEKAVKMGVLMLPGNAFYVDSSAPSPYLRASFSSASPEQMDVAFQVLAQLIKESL

As a reminder, the IC50 is the midpoint of a concentration-inhibition curve. A higher IC50 goes with lower potency.

Turning to `Cn1nc2c(c1Cc1ccccc1)C[C@@H](N)C(=O)N2O` [US8933095, 2], the IC50 was 63.7 nM.
